Experimental data published in US12145923B2, “Tetrahydroisoquinoline compound, preparation method therefor, pharmaceutical composition containing same, and use thereof” (SHANGHAI INSTITUTE OF MATERIA MEDICA, CHINESE ACADEMY OF …, priority 2018, dated 2024).
Where “and” joins values, the source holds several entries; their conditions need not be identical. Equal values may be shown once.

Experiments:
[1] = target: Human PDE4D catalytic domain (Homo sapiens (Human), UniProt Q08499); assay: Scintillation Proximity Assay (SPA), inhibition of PDE4D catalytic domain activity; assay type: biochemical; settings: Compound concentration: 1 μM; read-out: PDE4D enzyme activity inhibition rate %
Method: The scintillation Proximity Assay (SPA) method was used to determine the inhibitory effect of compounds on the activity of PDE4D catalytic domain. Human PDE4D catalytic domain protein was obtained by expression and purification in E. coli. […] [^3H]-cAMP, scintillation beads (RPNQO150, Perkin Elmer), and 96-well scintillation microplates (Isoplate-96, Perkin Elmer) were purchased from Perkin Elmer Company.
Finally, 10 μl [^3H]-cAMP (0.005 μCi/μl) was added and incubated for 30 min at 30° C. in a water bath. 50 μl SPA beads was added to quench the reaction, shaked appropriately, and stood for 20 minutes. A microplate scintillation counter was used.

TNF-α secretion in PBMC = assay: Inhibition of LPS-stimulated TNF-α secretion in PBMC (ELISA); assay type: cell-based; settings: Homo sapiens, PBMC; for inhibition at 1 µM / inhibition at 10 µM: read-out: Inhibition rate %
From the text: According to the difference in cell density in human blood, PBMC (peripheral blood mononuclear cell, PBMC) was directly separated and purified by gradient centrifugation using lymphocyte separation fluid. The cell type was mononuclear cells in blood, mainly including lymphocytes (T/B), monocytes, macrophages, dendritic cells and other minor cell types, of which lymphocytes account for a large part, which can directly in vitro simulate the blood immune environment.
PBMC cells isolated from human blood were implanted into 96-well plates at 2*10^5/ml; compounds in gradients were added, with at least three replicates for each gradient; After the PBMCs were incubated at 37° C., 5% CO2 for 1 hour, LPS was added (the final concentration was 10 ug/ml) to stimulate PBMC to express TNF-α, and incubated for another 18-20 h at 37° C., 5% C02. The 96-well plate was collected. The background control with no stimulant and stimulation control wells were also set, with a total volume of 200 μl. The culture supernatant was collected by centrifugation, and the expression level of TNF-α in the culture supernatant was detected by ELISA.

RAW 264.7 cells = assay: Cytotoxicity on RAW 264.7 cells (CCK-8 method); assay type: cell-based, mouse
Method: Mouse RAW 264.7 cells were purchased from American Type Culture Collection (Manassas, VA, USA), and cultivated in DMEM culture medium (Hyclone, South Logan, UT, USA) containing 10% fetal bovine serum (Hyclone, South Logan, UT, USA). Cells were collected and counted before use, and inoculated in a 96-well plate (Corning, NY, USA) at 1×10^5/well. […] 20 μl of CCK-8 solution (Dojindo, Kumamoto, Japan) was added at 30 min before the end of the culture. After the cultivation was ended, the absorbance OD value was measured at 450 nm (reference 650 nm) on amicroplate reader (Molecular Devices, Sunnyvale, CA, USA). The toxicity of the compound on RAW 264.7 cells was calculated by dividing the OD value of the test sample by the OD value of the cell control well, which was labeled as the cell survival rate M %.

[2] = system: tumor necrosis factor-α secretion in RAW 264.7 cells; assay: Inhibition of LPS-stimulated tumor necrosis factor-α secretion in RAW 264.7 cells (ELISA); assay type: cell-based, mouse; settings: Mus musculus, RAW264.7, 4 h, read-out: Tumor necrosis factor-α inhibition rate/%

Human PDE4D catalytic domain, sequence (Q08499 386-715): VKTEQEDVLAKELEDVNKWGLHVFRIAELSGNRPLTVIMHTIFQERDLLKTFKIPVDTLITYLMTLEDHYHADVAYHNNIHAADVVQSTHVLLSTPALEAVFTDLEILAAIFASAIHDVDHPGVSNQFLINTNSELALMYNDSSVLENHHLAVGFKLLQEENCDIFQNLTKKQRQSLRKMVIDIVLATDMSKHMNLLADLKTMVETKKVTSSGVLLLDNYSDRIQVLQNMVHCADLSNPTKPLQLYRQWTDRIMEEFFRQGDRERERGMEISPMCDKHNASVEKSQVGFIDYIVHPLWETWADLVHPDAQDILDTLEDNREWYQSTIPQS

SMILES | inhibition at 1 µM [1] [%] | inhibition at 1 µM (TNF-α secretion in PBMC) [%] | inhibition at 10 µM (TNF-α secretion in PBMC) [%] | Cell survival rate/% (RAW 264.7 cells; RAW 264.7, 0.5 μM) | Cell survival rate/% (RAW 264.7 cells; RAW 264.7, 5 μM) | Cell survival rate/% (RAW 264.7 cells; RAW 264.7, 50 μM) | inhibition at 0.5 µM [2] [%] | inhibition at 5 µM [2] [%] | inhibition at 50 µM [2] [%] | IC50 (TNF-α secretion in PBMC) [µM]
CCOc1cc2c(cc1OC)CCN(S(=O)(=O)C1CCCCC1)[C@H]2CCc1c[nH]c2ccc(OC)cc12 [(S)-C49, (S)-7-ethoxy-6-methoxy-1-(2-(5-methoxy-1H-indol-3-yl)ethyl)-2-cyclohexylsulfonyl-1,2,3,4-tetrahydroisoquinoline] | 70.8 |  |  |  |  |  |  |  |  | 
COCC(=O)N1CCc2cc(OC)c(OC)cc2C1Cc1c[nH]c2ccccc12 (stereo not drawn) [Compound C11, 1-(1-((1H-indol-3-yl)methyl)-6,7-dimethoxy-3,4-dihydroisoquinoline-2(1H)-yl)-2-methoxyethane-1-one] |  | 39.9 | 50 | 97.9% | 91.2% | 87.3% | -12.7 | -11.9 | 20.1 | 
CCOc1cc2c(cc1OC)CCN(S(=O)(=O)c1cccnc1)[C@H]2CCc1c[nH]c2ccc(OC)cc12 [(S)-C55] | 20.5 |  |  |  |  |  |  |  |  | 
CCOc1cc2c(cc1OC)CCN(S(=O)(=O)c1ccc(F)c(F)c1)[C@H]2CCc1c[nH]c2ccc(OC)cc12 [(S)-C51, (S)-7-ethoxy-6-methoxy-1-(2-(5-methoxy-1H-indol-3-yl)ethyl)-2-(3,4-difluorophenyl)sulfonyl-1,2,3,4-tetrahydroisoquinoline] | 37.9 |  |  |  |  |  |  |  |  | 
CCOc1cc2c(cc1OC)CCN(C(=O)C(F)(F)F)[C@H]2CCc1c[nH]c2ccc(OC)cc12 [(S)-C54, (S)-7-ethoxy-1-(2-(5-methoxy-1H-indol-3-yl)ethyl)-6-methoxy-3,4-dihydroisoquinoline-2(1H)-trifluoroethane-1-one] | 46 |  |  |  |  |  |  |  |  | 
CCOc1cc2c(cc1OC)CCN(C(=O)COC)[C@H]2Cc1c[nH]c2ccccc12 [(S)-C16, (S)-1-(1-((1H-indol-3-yl)methyl)-7-ethoxy-6-methoxy-3,4-dihydroisoquinoline-2(1H)-yl)-2-methoxyethane-1-one] |  |  | 1.89 | 123.2% | 133.1% | 113.1% | 2.6 | 12.7 | 10.4 | 
COc1cc2c(cc1OCC1CC1)[C@H](CCc1c[nH]c3cc(C)ccc13)N(C=O)CC2 [(S)-C4, (S)-7-(cyclopropylmethoxy)-6-methoxy-1-(2-(6-methyl-1H-indol-3-yl)ethyl)-3,4-dihydroisoquinoline-2(1H)-formaldehyde] |  | 32 | 76.9 | 97.6% | 71.8% | 77.3% | -30.1 | -25.6 | 54.5 | 2.12
CCOc1cc2c(cc1OC)CCN(CCS(C)(=O)=O)[C@H]2Cc1c[nH]c2ccccc12 [(S)-C14, (S)-1-((1H-indol-3-yl)methyl)-7-ethoxy-6-methoxy-2-(2-(methylsulfonyl)ethyl)-1,2,3,4-tetrahydroisoquinoline] |  | 17 | 54.5 | 128.3% | 98.8% | 97.3% | 2.4 | -2.2 | 13.6 | 
CCOc1cc2c(cc1OC)CCN(C=O)[C@H]2CCc1c[nH]c2ccccc12 [(S)-A4, (S)-1-(2-(1H-indol-3-yl)ethyl)-7-ethoxy-6-methoxy-3,4-dihydroisoquinoline-2(1H)-formaldehyde] |  |  |  | 103% | 100.8% | 98.1% |  |  |  | 
CCOc1cc2c(cc1OC)CCN(C=O)[C@H]2Cc1c[nH]c2ccccc12 [(S)-C10, (S)-1-((1H-indol-3-yl)methyl)-7-ethoxy-6-methoxy-3,4-dihydroisoquinoline-2(1H)-formaldehyde] |  |  |  | 89.1% | 84.6% | 104.1% |  |  |  | 
COc1cc2c(cc1OCC1CC1)C(CCc1c[nH]c3ccccc13)N(C=O)CC2 (stereo not drawn) [Compound A3, 1-(2-(1H-indol-3-yl)ethyl)-7-(cyclopropyl-methoxy)-6-methoxy-3,4-dihydroisoquinoline-2(1H)-formaldehyde] |  | 0.84 | 65.7 | 96.9% | 108.2% | 94% | -0.5 | -15.5 | 27.3 | 5.69
CCOc1cc2c(cc1OC)CCN(C=O)[C@H]2Cc1c[nH]c2ccc(C)cc12 [(S)-C17, (S)-7-ethoxy-6-methoxy-1-((5-methyl-1H-indol-3-yl)methyl)-3,4-dihydroisoquinoline-2(1H)-formaldehyde] |  |  | 18.8 | 101.7% | 87.3% | 103.9% | -32.2 | -33.7 | -13.4 | 
CCOc1cc2c(cc1OC)CCN(C(=O)CS(C)(=O)=O)[C@H]2Cc1c[nH]c2ccccc12 [(S)-C15, (S)-1-(1-((1H-indol-3-yl)methyl)-7-ethoxy-6-methoxy-3,4-dihydroisoquinoline-2(1H)-yl)-2-(methanesulfonyl)ethane-1-one] |  |  | -23.9 | 107.3% | 110.5% | 101.2% | 18 | -4.5 | -37.7 | 
CCOc1cc2c(cc1OC)CCN(C=O)C2Cc1c[nH]c2ccccc12 (stereo not drawn) [Compound C10, 1-((1H-indol-3-yl)methyl)-7-ethoxy-6-methoxy-3,4-dihydroisoquinoline-2(1H)-formaldehyde] |  |  |  | 119.5% | 111.4% | 94% |  |  |  | 
COc1cc2c(cc1OCC1CC1)[C@H](CCc1c[nH]c3ccccc13)N(C=O)CC2 [(S)-A3, (S)-1-(2-(1H-indol-3-yl)ethyl)-7-(cyclopropyl-methoxy)-6-methoxy-3,4-dihydroisoquinoline-2(1H)-formaldehyde] |  | 31.2 | 76.6 | 110.9% | 86.5% | 77.3% | -2.9 | -3.5 | 54.6 | 2.65
CCOc1cc2c(cc1OC)CCN(C=O)[C@H]2Cc1c[nH]c2ccc(OC)cc12 [(S)-C18, (S)-7-ethoxy-6-methoxy-1-((5-methoxy-1H-indol-3-yl)methyl)-3,4-dihydroisoquinoline-2(1H)-formaldehyde] |  |  | 39.4 | 118% | 111.5% | 112.9% | 15.8 | 14.5 | 38.8 | 
CCOc1cc2c(cc1OC)CCN(C=O)C2CCc1c[nH]c2ccccc12 (stereo not drawn) [Compound A4, 1-(2-(1H-indol-3-yl)ethyl)-7-ethoxy-6-methoxy-3,4-dihydroisoquinoline-2(1H)-formaldehyde] |  |  |  | 100.6% | 113.4% | 95.3% |  |  |  | 
COc1cc2c(cc1OC)[C@H](Cc1c[nH]c3ccccc13)N(C(=O)CS(C)(=O)=O)CC2 [(S)-C13, (S)-1-(1-((1H-indol-3-yl)methyl)-6,7-dimethoxy-3,4-dihydroisoquinoline-2(1H)-yl)-2-(methanesulfonyl)ethane-1-one] |  |  | 29.9 | 111.2% | 91.4% | 101.7% | -3 | -13.7 | -37.3 | 
COc1cc2c(cc1OC)C(Cc1c[nH]c3ccccc13)N(CCS(C)(=O)=O)CC2 (stereo not drawn) [Compound C12, 1-((1H-indol-3-yl)methyl)-6,7-dimethoxy-2-(2-(methylsulfonyl)ethyl)-1,2,3,4-tetrahydroisoquinoline] |  | 45.4 | 52.7 | 93.6% | 115.7% | 103.8% | -15.1 | -7.9 | 25.5 | 
COc1cc2c(cc1OC)[C@@H](CCc1c[nH]c3ccccc13)N(C=O)CC2 [(R)-A1, (R)-1-(2-(1H-indol-3-yl)ethyl)-6,7-dimethoxy-3,4-dihydroisoquinoline-2(1H)-formaldehyde] |  |  |  | 102.7% and 135.9% | 106.2% and 110.1% | 89.3% and 122.5% |  |  |  | 
